Columns and labels:
Chlorella sp. ATCC 7516 = experiment: Algal efficacy testing of dry paint films (modified ASTM 5589, 6-well plates); format: cell-based; conditions: 3 weeks; for % inhibition: at the Total conc, versus blank sample; for Total conc (concentration chosen as minimum inhibitory concentration, pass level ≧75% inhibition): total active ingredient in acrylic/silicone paint, dry film on filter paper
Method: (§1) Slurries containing 33% antimicrobial active ingredient (chlorotoluron) were post added to a white, acrylic/silicone based outdoor paint free of biocides to give a total active ingredient concentration of 10000 and 1000 ppm respectively. KATHON™ 893T (100% OIT) was post added to a white, acrylic/silicone based outdoor paint free of biocides to give a total active ingredient concentration of 10000 and 1000 ppm respectively. These paints were then diluted with an antimicrobial free acrylic/silicone based paint and mixed to prepare targeted concentrations of antimicrobial compounds for the testing. The total biocides concentrations tested were 125, 250, 500, 1000, 2000 and 5000 ppm. After biocides addition or dilution, the paints were mixed 90 seconds with the horse power shaker (AXEL 75M3372/Agitateur SO-10MI) until uniformity was achieved. Paints containing different antimicrobial compounds at the same levels were mixed together in order to obtain the desired ratio of antimicrobial compounds. After one day, the paints were applied to Schleicher & Schuell filter paper at 280 μm wet film thickness and dried for 3 days at room temperature avoiding direct exposure to sunlight. Square discs (1.6 cm×1.6 cm) were cut out from each panel and were used as the substrate for algal efficacy tests. This sample size allowed for an agar border when the sample disc was placed into the well of the test plate.
(§2) Algal efficacy was tested according to modified ASTM 5589 which is a standard accelerated test method for determining resistance of various coatings (including paints) to algal defacement. To accommodate for high-throughput screening, this method was scaled down from petri dishes to 6-well plates. Bold Modified Basal Freshwater Nutrient Solution was used as growth medium. A single coated filter paper coupon was placed with a pair of sterile forceps at the center of the agar plug (on top) with the painted surface facing upwards. Algal inoculums were prepared by mixing equal concentrations (1×10^6 cfu/ml) and equal volumes of exponentially growing algae cultures.
(§3) Each well that contains a tested coupon was inoculated with 1750 μl of algal suspensions (1×10^6 cfu/ml) making sure that the whole surface (paint film as well as the agar surrounding it) was evenly covered. The plates were incubated at room temp (21° C.-25° C.) with cyclic exposure to light and dark phases, for a period of three weeks. The total area inhibited was evaluated at the end of each week according to percent area covered in 5% increments
(§4) At the end of the three week incubation period, the samples were scored for percent inhibition regarding color intensity compared to the blank sample.
(§5) The Synergy Index calculation was performed as follows.
(§6) The SI is calculated based on F. C. Kull et.
(§7) SI value of <1 in the formula indicates a synergism of the blended biocides exists.
(§8) The minimal targeted inhibition was set at 75%, meaning a coupon with at least 75% algal growth inhibition was considered as a pass.

[1] = tested on: Stichococcus bacillaris SAG 379-1a / CCAP 379/1a; experiment: as above; format: cell-based; conditions: 3 weeks; for % inhibition: at the Total conc, versus blank sample; for Total conc (concentration chosen as minimum inhibitory concentration, pass level ≧75% inhibition): total active ingredient in acrylic/silicone paint, dry film on filter paper
Method: as §1, §2, §3, §4, §5, §6, §7, §8

SMILES | % inhibition (Chlorella sp. ATCC 7516) | Total conc (concentration chosen as minimum inhibitory concentration, pass level ≧75% inhibition) (Chlorella sp. ATCC 7516) | % inhibition [1] | Total conc (concentration chosen as minimum inhibitory concentration, pass level ≧75% inhibition) [1]
Cc1ccc(NC(=O)N(C)C)cc1Cl [Chlorotoluron, N′-(3-chloro-4-methylphenyl)-N,N-dimethylurea] | 100% | 1000 ppm | 90% | 500 ppm
CCCCCCCCn1sccc1=O [OIT, 2-n-octyl-4-isothiazolin-3-one] | 50% | 2000 ppm | 60% | 2000 ppm

Reference: patent publication US9326518B2, “Synergistic combination of a chlorotoluron compound and OIT for dry film protection” (Dow Global Technologies LLC, priority 2013, dated 2016)
